Data published in US8501713B2, “Drug combinations for the treatment of duchenne muscular dystrophy” (Summit Corporation PLC, priority 2007, dated 2013).

Test system: Utrophin A promoter linked to a luciferase reporter gene
Experiment: Luciferase reporter assay (murine H2K cells)
Assay type: cell-based
Conditions: for activity at 10 µM: Mus musculus, H2K mdx, read-out: Activity
Method in brief: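 Compound at 10 μM final was applied for 48 hrs to plated H2K mdx myoblasts (33° C, 10% CO2, interferon-containing medium) bearing a luciferase gene under the utrophin A promoter. Luminescence from lysed cells served as read-out.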

[1] = luciferase reporter assay in murine H2K cells, classified relative to control
[2] = luciferase level relative to control, H2K/mdx/Utro A reporter cells, compound 10 μM final concentration

Row | Compound | activity at 10 µM [2] [%] | also measured
1 | CCOCCC(=O)Nc1ccc(-c2nc3ccc(C)cc3s2)cc1 [Example 660] | – | Activity [1]: +++ (Between 301% and 400% relative to control)
2 | Oc1cccc(-c2nc3ccccc3s2)c1 [Example 594] | – | Activity [1]: ++++ (Above 401% relative to control)
3 | CC(C)C(=O)Nc1ccc(-c2nc3cc(Cl)ccc3o2)cc1 [Example 318, N-(4-(5-chlorobenzo[d]oxazol-2-yl)phenyl)isobutyramide] | 201 to 300 | –
4 | CCS(=O)(=O)c1ccc2oc(-c3cccs3)nc2c1 [Example 429, 5-(ethylsulfonyl)-2-(thiophen-2-yl)benzo[d]oxazole] | 201 to 300 | –
5 | CCCCC(=O)Nc1ccc2oc(-c3ccc(Cl)cc3)nc2c1 [Example 100, N-(2-(4-chlorophenyl)benzo[d]oxazol-5-yl)pentanamide] | 201 to 300 | –
6 | c1ccc(-c2nnc(SCc3nc4ccccc4[nH]3)o2)cc1 [Example 530] | – | Activity [1]: + (Up to 200% relative to control)
7 | Nc1ccc2oc(-c3ccccc3)nc2c1 [Example 14, 2-phenylbenzo[d]oxazol-5-amine] | 301 to 400 | –
8 | CC(=O)Nc1ccc(-c2ccc3[nH]c(-c4ccc(Cl)cc4)cc3c2)cc1 [Example 367, N-(4-(2-(4-chlorophenyl)-1H-indol-5-yl)phenyl)acetamide] | < 200 | –
9 | CCN(CC)c1ccc(-c2nc3cc(NC(=O)c4cc(Cl)cc(Cl)c4)ccc3o2)cc1 [Example 70, 3,5-dichloro-N-(2-(4-(diethylamino)phenyl)benzo[d]oxazol-5-yl)benzamide] | < 200 | –
10 | Nc1ccc(-c2nc3ccc(N)cc3o2)cc1 [Example 544] | – | Activity [1]: ++ (Between 201% and 300% relative to control)
11 | Nc1ccc2nc(-c3ccc(Cl)c(Cl)c3)oc2c1 [Example 369, 2-(3,4-dichlorophenyl)benzo[d]oxazol-6-amine] | > 401 | –
12 | CC(C)C(=O)Nc1ccc2ccn(Cc3ccccc3)c2c1 [Example 387, N-(1-benzyl-1H-indol-6-yl)isobutyramide] | < 200 | –
13 | FC(F)(F)Oc1ccc2oc(-c3ccc4ccccc4c3)nc2c1 [Example 448, 2-(Naphthalen-2-yl)-5-(trifluoromethoxy)benzo[d]oxazole] | > 401 | –
14 | O=C(CCc1ccccc1)Nc1ccc2oc(-c3ccccc3)nc2c1 [Example 7, 3-phenyl-N-(2-phenylbenzo[d]oxazol-5-yl)propanamide] | < 200 | –
15 | COc1ccc(-c2nc3cc(N)ccc3o2)cc1 [Example 512] | – | Activity [1]: + (Up to 200% relative to control)
16 | O=C(Nc1ccc2oc(-c3ccc(Cl)cc3)nc2c1)C1CCCC1 [Example 346, N-(2-(4-chlorophenyl)benzo[d]oxazol-5-yl)cyclopentanecarboxamide] | < 200 | –
17 | O=[N+]([O-])c1ccc2nc(-c3ccccc3O)[nH]c2c1 [Example 106, 2-(6-nitro-1H-benzo[d]imidazol-2-yl)phenol] | < 200 | –
18 | O=[N+]([O-])c1ccc2oc(-c3ccccn3)nc2c1 [Example 171, 5-nitro-2-(pyridin-2-yl)benzo[d]oxazole] | < 200 | –
19 | CS(=O)(=O)c1ccc2nc(-c3ccc(Cl)cc3)sc2c1 [Example 406, 2-(4-chlorophenyl)-6-(methylsulfonyl)benzo[d]thiazole] | > 401 | –
20 | CC(C)NC(=O)Nc1ccc2oc(-c3ccccc3)nc2c1 [Example 241, 1-isopropyl-3-(2-phenylbenzo[d]oxazol-5-yl)urea] | < 200 | –

Row | Compound | activity at 10 µM [2] [%] | also measured
21 | Cc1ccc(-c2nc3cc(NC(=O)c4cccnc4)ccc3o2)cc1 [Example 113, N-(2-p-tolylbenzo[d]oxazol-5-yl)nicotinamide] | < 200 | –
22 | CCN(CC)c1ccc(-c2nc3cc(NC(=O)c4ccc(F)cc4)ccc3o2)cc1 [Example 71, N-(2-(4-(diethylamino)phenyl)benzo[d]oxazol-5-yl)-4-fluorobenzamide] | < 200 | –
23 | Clc1ccc(-c2nc3cc(-c4ccc(Cl)nc4)ccc3o2)cc1 [Example 314, 2-(4-chlorophenyl)-5-(6-chloropyridin-3-yl)benzo[d]oxazole] | < 200 | –
24 | CC(C)C(=O)Nc1ccc2oc(-c3cc(Cl)ccc3Cl)nc2c1 [Example 311, N-(2-(2,5-dichlorophenyl)benzo[d]oxazol-5-yl)isobutyramide] | < 200 | –
25 | CCS(=O)(=O)c1ccc2oc(-c3ccc4cc(F)ccc4c3)nc2c1 [Example 431, 5-(ethylsulfonyl)-2-(6-fluoronaphthalen-2-yl)benzo[d]oxazole] | < 200 | –
26 | CC(=O)Nc1cccc(-c2ccc3oc(-c4ccc(Cl)cc4)nc3c2)c1 [Example 575] | – | Activity [1]: ++++ (Above 401% relative to control)
27 | Nc1ccc(-c2nc3cc(Cl)cc(Cl)c3o2)cc1 [Example 518] | – | Activity [1]: ++ (Between 201% and 300% relative to control)
28 | O=C(Nc1ccc2oc(-c3ccccc3)nc2c1)c1cccs1 [Example 37, N-(2-phenylbenzo[d]oxazol-5-yl)thiophene-2-carboxamide] | 201 to 300 | –
29 | Cc1cc(NC(=O)c2ccc(F)cc2F)c(OC(=O)c2ccc(F)cc2F)cc1C [Example 238, 2-(2,4-difluorobenzamido)-4,5-dimethylphenyl 2,4-difluorobenzoate] | < 200 | –
30 | CC(C)C(=O)Nc1ccc(-c2nc3ccccc3s2)cc1 [Example 651] | – | Activity [1]: +++ (Between 301% and 400% relative to control)
31 | COc1ccc(-c2nc3ccccc3s2)cc1N [Example 597] | – | Activity [1]: +++ (Between 301% and 400% relative to control)
32 | Nc1ccc2oc(-c3ccc4c(c3)OCO4)nc2c1 [Example 299, 2-(benzo[d][1,3]dioxol-5-yl)benzo[d]oxazol-5-amine] | 201 to 300 | –
33 | Clc1ccc(-c2cc3cc(-c4ccccc4)ccc3[nH]2)cc1 [Example 339, 2-(4-chlorophenyl)-5-phenyl-1H-indole] | < 200 | –
34 | CCN(CC)c1ccc(-c2nc3cc(N)ccc3o2)cc1 [Example 17, 2-(4-(diethylamino)phenyl)benzo[d]oxazol-5-amine] | – | Activity [2]: + (Up to 200% relative to control)
35 | CC(C)C(=O)Nc1ccc2oc(-c3cccc(Cl)c3F)nc2c1 [Example 342, N-(2-(3-chloro-2-fluorophenyl)benzo[d]oxazol-5-yl)isobutyramide] | > 401 | –
36 | Cc1ccc(-c2nc3ccccc3[nH]2)cc1N [Example 620] | – | Activity [1]: ++++ (Above 401% relative to control)
37 | Cc1ccc2nc(-c3ccc(NC(=O)CSc4nnc[nH]4)cc3)sc2c1 [Example 654] | – | Activity [1]: +++ (Between 301% and 400% relative to control)
38 | Nc1ccc(-c2nc3ccccc3o2)c(O)c1 [Example 484] | – | Activity [1]: ++ (Between 201% and 300% relative to control)
39 | c1csc(-c2nc3ccccc3[nH]2)c1 [Example 463] | – | Activity [1]: + (Up to 200% relative to control)
40 | Cc1ccc2oc(-c3ccc(Cl)c(N)c3)nc2c1 [Example 636] | – | Activity [1]: +++ (Between 301% and 400% relative to control)

Row | Compound | activity at 10 µM [2] [%] | also measured
41 | CCCC(=O)Nc1ccc2oc(Cc3ccccc3)nc2c1 [Example 227, N-(2-benzylbenzo[d]oxazol-5-yl)butyramide] | < 200 | –
42 | CC(C)C(=O)Nc1ccc2oc(-c3ccc(Cl)cc3)cc2c1 [Example 414, 2-(4′-chlorophenyl)-5-isobutyramido-benzofuran] | < 200 | –
43 | CCS(=O)(=O)c1ccc2oc(C3CCCCC3)nc2c1 [Example 392, 2-cyclohexyl-5-(ethylsulfonyl)benzo[d]oxazole] | < 200 | –
44 | Cc1ccc(-c2nc3cc(C)c(C)cc3o2)cc1 [Example 215, 5,6-dimethyl-2-p-tolylbenzo[d]oxazole] | > 401 | –
45 | O=[N+]([O-])c1cc2oc(-c3ccc(Cl)cc3)nc2cc1Cl [Example 326, 5-chloro-2-(4-chlorophenyl)-6-nitrobenzo[d]oxazole] | 301 to 400 | –
46 | CCCC(=O)Nc1ccc2[nH]c(-c3ccccc3)nc2c1 [Example 194, N-(2-phenyl-1H-benzo[d]imidazol-5-yl)butyramide] | 201 to 300 | –
47 | O=C(Nc1ccc2oc(-c3ccc(Cl)cc3)nc2c1)C1CCC1 [Example 266, N-(2-(4-chlorophenyl)benzo[d]oxazol-5-yl)cyclobutanecarboxamide] | 301 to 400 | –
48 | CC(C)C(=O)Nc1ccc(-c2nc3ccccc3o2)cc1 [Example 454, N-(4-(Benzo[d]oxazol-2-yl)phenyl)isobutyramide] | > 401 | –
49 | Nc1ccc2oc(N3CCOCC3)nc2c1 [Example 360, 2-morpholinobenzo[d]oxazol-5-amine] | < 200 | –
50 | Nc1ccc2oc(-c3ccc(N4CCCCC4)cc3)nc2c1 [Example 150, 2-(4-(piperidin-1-yl)phenyl)benzo[d]oxazol-5-amine] | 201 to 300 | –
51 | COc1ccc(-c2nc3cc(N)ccc3o2)cc1OC [Example 515] | – | Activity [1]: ++ (Between 201% and 300% relative to control)
52 | O=C(Nc1ccc2oc(-c3ccc(Cl)cc3)nc2c1)c1ccccc1 [Example 88, N-(2-(4-chlorophenyl)benzo[d]oxazol-5-yl)benzamide] | < 200 | –
53 | O=C(CC(F)(F)F)Nc1ccc2oc(-c3ccc(Cl)cc3)nc2c1 [Example 345, N-(2-(4-chlorophenyl)benzo[d]oxazol-5-yl)-3,3,3-trifluoropropanamide] | 301 to 400 | –
54 | O=[N+]([O-])c1ccc2oc(Cc3ccccc3)nc2c1 [Example 214, 2-benzyl-5-nitrobenzo[d]oxazole] | < 200 | –
55 | COCc1nc2ccccc2[nH]1 [Example 499] | – | Activity [1]: + (Up to 200% relative to control)
56 | CC(=O)Nc1ccc(-c2nc3ccc(Cl)cc3o2)cc1 [Example 332, N-(4-(6-chlorobenzo[d]oxazol-2-yl)phenyl)acetamide] | 301 to 400 | –
57 | CCCC(=O)Nc1ccc2oc(C3CCCCC3)nc2c1 [Example 249, N-(2-cyclohexylbenzo[d]oxazol-5-yl)butyramide] | < 200 | –
58 | CC(=O)Nc1ccc(-c2ccc3oc(-c4ccc(Cl)cc4)nc3c2)cc1 [Example 252, N-(4-(2-(4-chlorophenyl)benzo[d]oxazol-5-yl)phenyl)acetamide] | 301 to 400 | –
